Reference: patent US11098342B2, “Time lapse sequencing: a convertible-nucleoside approach to enrichment-free analysis of RNA dynamics” (Yale University, priority 2017, dated 2021)

Test system: MEF cells
Assay: MEF cell viability, MTT Cell Proliferation Assay
Format: cell-based, mouse
Conditions: MEF cells treated with s^4U (0-1 mM) for 1 hour; MTT assay in triplicate
Procedure: FIG. 9A depicts exemplary MEF cell viability assays with increasing concentrations of s^4U (0, 50, 100, 500 and 1000 μM). FIG. 9B depicts exemplary MEF cell viability assays with increasing concentrations of Triton-X-100 (0, 0.5, 1, and 2%). MEF cells were plated at 10^6 cells/ml and allowed to rest overnight. An MTT assay (ATTC MTT Cell Proliferation Assay kit) was performed in triplicate after indicated treatment for 1 h. After treatment and lysis, absorbance at 570 nm was measured. FIG. 9C depicts an exemplary MA-plot of expression levels in RNA-seq in MEF cells treated with 1 mM s^4U for 1 hour, compared to cells without s^4U treatment. […] Each condition was tested with two replicates. Conditions are: ++, with s^4U treatment and chemical treatment; +−, with s^4U treatment but no chemical treatment; −+, no s^4U treatment but with chemical treatment; −−, neither s^4U treatment nor chemical treatment.
MEF cells were grown at 37° C. in DMEM containing 10% FBS and 1% P/S. Cells were plated at 10^6 cells/mL in a 96-well microtiter plate and allowed to recover overnight. Cells were then treated in triplicate with increasing concentrations of s^4U (0-1 mM) for 1 hour, and the ATCC MTT Cell Proliferation Assay kit was used according to manufacturer's instructions to assess cell viability.

## O=c1[nH]c(=S)ccn1[C@@H]1O[C@H](CO)[C@@H](O)[C@H]1O [s^4U, 4-thiouridine]
  s^4U toxicity (cell viability, absorbance at 570 nm): no s^4U toxicity was observed
